ChEMBL document CHEMBL4619827, “Design, Synthesis, and Biological Evaluation of Novel Acylhydrazone Derivatives as Potent Neuraminidase Inhibitors” (ACS Med Chem Lett, 2020)

test: Inhibition of clostridium perfringens neuraminidase using fluorescent substrate preincubated for 2 mins followed by substrate addition and measured after 1 hr by fluorescence based microplate reader analysis

Structure (SMILES) | IC50 [µM]
COc1ccc(Br)cc1OCc1cccc(/C=N/NC(=O)C(=O)NCCCN2CCOCC2)c1 | 7.31
O=C(NCCCN1CCOCC1)C(=O)N/N=C/c1cccc(COc2ccccc2Cl)c1 | 20.4
O=C(NCCCN1CCOCC1)C(=O)N/N=C/c1cccc(COc2ccc([N+](=O)[O-])cc2)c1 | 27.8
O=C(NCCCN1CCOCC1)C(=O)N/N=C/c1cccc(COc2ccc(Cl)cc2)c1 | 6.2
COc1ccccc1OCc1cccc(/C=N/NC(=O)C(=O)NCCCN2CCOCC2)c1 | 47.8
O=C(NCCCN1CCOCC1)C(=O)N/N=C/c1cccc(COc2ccccc2[N+](=O)[O-])c1 | 86
COc1cccc(OCc2cccc(/C=N/NC(=O)C(=O)NCCCN3CCOCC3)c2)c1 | 13.6
O=C(NCCCN1CCOCC1)C(=O)N/N=C/c1cccc(COc2cc(F)ccc2[N+](=O)[O-])c1 | 17.8
O=C(NCCCN1CCOCC1)C(=O)N/N=C/c1cccc(COc2cccc(Cl)c2)c1 | 22.1
CC(=O)Nc1ccc(OCc2cccc(/C=N/NC(=O)C(=O)NCCCN3CCOCC3)c2)cc1 | 73.4
O=C(NCCCN1CCOCC1)C(=O)N/N=C/c1cccc(COc2ccccc2F)c1 | 21.6
COc1cc([N+](=O)[O-])ccc1OCc1cccc(/C=N/NC(=O)C(=O)NCCCN2CCOCC2)c1 | 28.4
O=C(NCCCN1CCOCC1)C(=O)N/N=C/c1cccc(COc2ccc(F)cc2)c1 | 5.29
COc1ccc(OCc2cccc(/C=N/NC(=O)C(=O)NCCCN3CCOCC3)c2)cc1 | 0.6
CCC(CC)O[C@@H]1C=C(C(=O)O)C[C@H](N)[C@H]1NC(C)=O [OSELTAMIVIR CARBOXYLATE] | 17
